Reference: article PMC10916402, “Meropenem-ANT3310, a unique β-lactam-β-lactamase inhibitor combination with expanded antibacterial spectrum against Gram-negative pathogens including carbapenem-resistant Acinetobacter baumannii” (Antimicrobial Agents and Chemotherapy, 2024)
In brackets after ≈: the same amount, converted by molar mass. Where two headings read alike, the source gives them in different places.

Key:
[1] = system: A. baumannii clinical isolates; experiment: Broth microdilution MIC, A. baumannii clinical isolates; type: cell-based, Acinetobacter baumannii; details: for CLSI % Res: for MEM-ANT3310 % at ≥16 µg/mL; for MIC90: read-out: MIC90
Description: (§1) All isolates were randomly selected from the frozen culture collection of IHMA collected in 2018 and 2019. Matrix-assisted laser desorption ionization-time of flight mass spectrometry was used to confirm the identity of the organisms tested (Bruker Daltonics, Bremen, Germany).
(§2) MICs for all antimicrobial agents were determined at IHMA by broth microdilution in accordance with both CLSI ([17]) and EUCAST ([18]) guidelines. Microtiter panels were prepared by IHMA and stored at −70°C in cation-adjusted Mueller Hinton broth (CAMHB) (Becton Dickinson). Iron-depleted CAMHB was used to test cefiderocol. Panels containing ANT3310 were prepared fresh on the day of testing. […] MIC values corresponded to the first well with no visible growth. Quality control testing was performed on each day of testing with E. coli ATCC 25922, P. aeruginosa ATCC 27853, K. pneumoniae ATCC 700603 and BAA 1705, and A. baumannii NCTC 13304. MICs were interpreted using 2023 CLSI ([17]) and EUCAST ([18]) BPs.

[2] = system: carbapenem-resistant Acinetobacter baumannii (CRAB) clinical isolates; experiment: Broth microdilution MIC, CRAB isolates; type: cell-based; details: for Number of isolates inhibited at MIC of 0.25 µg/mL / Number of isolates inhibited at MIC of 0.5 µg/mL / Number of isolates inhibited at MIC of 1 µg/mL / Number of isolates inhibited at MIC of 2 µg/mL / Number of isolates inhibited at MIC of 4 µg/mL / Number of isolates inhibited at MIC of 8 µg/mL / Number of isolates inhibited at MIC of 16 µg/mL / Number of isolates inhibited at MIC of 32 µg/mL / Number of isolates inhibited at MIC of >32 µg/mL / Number of isolates inhibited at MIC of ≤0.125 µg/mL / MIC50 / MIC90: CRAB (MEM MICs >4 µg/mL); for CLSI % Res / CLSI % Sus: CRAB, CLSI BP; for CLSI % Res: for MEM-ANT3310 % at ≥16 µg/mL; for CLSI % Sus: for MEM-ANT3310 % inhibited at ≤8 µg/mL; for MIC90: read-out: MIC90
Description: as §1, §2

[3] = system: KPC-producing Enterobacterales (KPC-CRE); experiment: organism not typed; type: cell-based
Description: as §1, §2

[4] = system: OXA-producing Enterobacterales (OXA-CRE); experiment: organism not typed; type: cell-based
Description: as §1, §2

[5] = system: P. aeruginosa clinical isolates; experiment: Broth microdilution MIC, P. aeruginosa clinical isolates; type: cell-based, Pseudomonas aeruginosa; details: 502 P. aeruginosa, 2019 global collection
Description: as §1, §2

[6] = 2018 Global collection, All A. baumannii, N 500
[7] = 2019 Global collection, All A. baumannii, N 405
[8] = 180 KPC-producing Enterobacterales, EUCAST BP
[9] = 252 OXA-producing Enterobacterales, EUCAST BP

CC(C)(O/N=C(\C(=O)N[C@@H]1C(=O)N2C(C(=O)[O-])=C(C[N+]3(CCNC(=O)c4ccc(O)c(O)c4Cl)CCCC3)CS[C@H]12)c1csc(N)n1)C(=O)O [Cefiderocol, cefiderocol]
Number of isolates inhibited at MIC of 0.25 µg/mL [1, 6]: 83 | Number of isolates inhibited at MIC of 0.5 µg/mL [1, 6]: 111 | Number of isolates inhibited at MIC of 1 µg/mL [1, 6]: 78 | Number of isolates inhibited at MIC of 2 µg/mL [1, 6]: 52 | Number of isolates inhibited at MIC of 4 µg/mL [1, 6]: 24 | Number of isolates inhibited at MIC of 8 µg/mL [1, 6]: 3 | Number of isolates inhibited at MIC of 16 µg/mL [1, 6]: 3 | Number of isolates inhibited at MIC of 32 µg/mL [1, 6]: 2 | Number of isolates inhibited at MIC of >32 µg/mL [1, 6]: 21 | Number of isolates inhibited at MIC of ≤0.125 µg/mL [1, 6]: 123 | CLSI % Res ([1]; 2018 Global collection, All A. baumannii, N 500, CLSI BP): 10.6% | MIC50 [1, 7]: 0.5 µg/mL (≈ 0.665 µM) | Number of isolates inhibited at MIC of 0.25 µg/mL [1, 7]: 72 | Number of isolates inhibited at MIC of 0.5 µg/mL [1, 7]: 99 | Number of isolates inhibited at MIC of 1 µg/mL [1, 7]: 64 | Number of isolates inhibited at MIC of 2 µg/mL [1, 7]: 35 | Number of isolates inhibited at MIC of 4 µg/mL [1, 7]: 19 | Number of isolates inhibited at MIC of 8 µg/mL [1, 7]: 12 | Number of isolates inhibited at MIC of 16 µg/mL [1, 7]: 8 | Number of isolates inhibited at MIC of 32 µg/mL [1, 7]: 2 | Number of isolates inhibited at MIC of >32 µg/mL [1, 7]: 18 | Number of isolates inhibited at MIC of ≤0.125 µg/mL [1, 7]: 76 | CLSI % Res ([1]; 2019 Global collection, All A. baumannii, N 405, CLSI BP): 14.6% | CLSI % Sus ([1]; 2019 Global collection, All A. baumannii, N 405, CLSI BP, for MEM-ANT3310 % inhibited at ≤8 µg/mL): 76.8% | MIC50 ([1]; Acinetobacter baumannii, 2018 Global collection, All A. baumannii, N 500, read-out: MIC50): 0.5 µg/mL (≈ 0.665 µM) | MIC90 ([1]; Acinetobacter baumannii, 2018 Global collection, All A. baumannii, N 500): 4 µg/mL (≈ 5.32 µM) | MIC90 ([1]; Acinetobacter baumannii, 2019 Global collection, All A. baumannii, N 405): 4 µg/mL (≈ 5.32 µM) | MIC90 ([1]; Acinetobacter baumannii, A. baumannii, one or both of the 2018/2019 collections): 4 µg/mL (≈ 5.32 µM) | Number of isolates inhibited at MIC of 0.25 µg/mL ([2]; 2018 Global collection, N 363): 63 | Number of isolates inhibited at MIC of 0.5 µg/mL ([2]; 2018 Global collection, N 363): 99 | Number of isolates inhibited at MIC of 1 µg/mL ([2]; 2018 Global collection, N 363): 72 | Number of isolates inhibited at MIC of 2 µg/mL ([2]; 2018 Global collection, N 363): 49 | Number of isolates inhibited at MIC of 4 µg/mL ([2]; 2018 Global collection, N 363): 21 | Number of isolates inhibited at MIC of 8 µg/mL ([2]; 2018 Global collection, N 363): 3 | Number of isolates inhibited at MIC of 16 µg/mL ([2]; 2018 Global collection, N 363): 3 | Number of isolates inhibited at MIC of 32 µg/mL ([2]; 2018 Global collection, N 363): 2 | Number of isolates inhibited at MIC of >32 µg/mL ([2]; 2018 Global collection, N 363): 17 | Number of isolates inhibited at MIC of ≤0.125 µg/mL ([2]; 2018 Global collection, N 363): 34 | CLSI % Res ([2]; 2018 Global collection, N 363): 12.7% | CLSI % Sus ([2]; 2018 Global collection, N 363): 73.8% | MIC50 ([2]; 2019 Global collection, N 340): 0.5 µg/mL (≈ 0.665 µM) | Number of isolates inhibited at MIC of 0.25 µg/mL ([2]; 2019 Global collection, N 340): 64 | Number of isolates inhibited at MIC of 0.5 µg/mL ([2]; 2019 Global collection, N 340): 93 | Number of isolates inhibited at MIC of 1 µg/mL ([2]; 2019 Global collection, N 340): 61 | Number of isolates inhibited at MIC of 2 µg/mL ([2]; 2019 Global collection, N 340): 34 | Number of isolates inhibited at MIC of 4 µg/mL ([2]; 2019 Global collection, N 340): 19 | Number of isolates inhibited at MIC of 8 µg/mL ([2]; 2019 Global collection, N 340): 9 | Number of isolates inhibited at MIC of 16 µg/mL ([2]; 2019 Global collection, N 340): 8 | Number of isolates inhibited at MIC of 32 µg/mL ([2]; 2019 Global collection, N 340): 2 | Number of isolates inhibited at MIC of >32 µg/mL ([2]; 2019 Global collection, N 340): 18 | Number of isolates inhibited at MIC of ≤0.125 µg/mL ([2]; 2019 Global collection, N 340): 32 | CLSI % Res ([2]; 2019 Global collection, N 340): 16.5% | CLSI % Sus ([2]; 2019 Global collection, N 340): 73.5% | MIC50 ([2]; Acinetobacter baumannii, 2018 Global collection, N 363, read-out: MIC50): 0.5 µg/mL (≈ 0.665 µM) | MIC90 ([2]; Acinetobacter baumannii, 2018 Global collection, N 363): 4 µg/mL (≈ 5.32 µM) | MIC90 ([2]; Acinetobacter baumannii, 2019 Global collection, N 340): 8 µg/mL (≈ 10.6 µM) | MIC50 [3]: 1 µg/mL (≈ 1.33 µM) | MIC90 [3]: 4 µg/mL (≈ 5.32 µM) | CLSI % Res ([3]; 180 KPC-producing Enterobacterales, CLSI BP, for MEM-ANT3310 % at ≥16 µg/mL): 0% | CLSI % Sus ([3]; 180 KPC-producing Enterobacterales, CLSI BP, for MEM-ANT3310 % inhibited at ≤8 µg/mL): 100% | EUCAST % Res [3, 8]: 27.2% | EUCAST % Sus [3, 8]: 72.8% | MIC50 [4]: 1 µg/mL (≈ 1.33 µM) | MIC90 [4]: 4 µg/mL (≈ 5.32 µM) | CLSI % Res ([4]; 252 OXA-producing Enterobacterales, CLSI BP, for MEM-ANT3310 % at ≥16 µg/mL): 0.4% | CLSI % Sus ([4]; 252 OXA-producing Enterobacterales, CLSI BP, for MEM-ANT3310 % inhibited at ≤8 µg/mL): 98.8% | EUCAST % Res [4, 9]: 21.8% | EUCAST % Sus [4, 9]: 78.2% | Number of isolates inhibited at MIC of 0.25 µg/mL [5]: 125 | Number of isolates inhibited at MIC of 0.5 µg/mL [5]: 92 | Number of isolates inhibited at MIC of 1 µg/mL [5]: 33 | Number of isolates inhibited at MIC of 2 µg/mL [5]: 16 | Number of isolates inhibited at MIC of 4 µg/mL [5]: 7 | Number of isolates inhibited at MIC of 8 µg/mL [5]: 1 | Number of isolates inhibited at MIC of 32 µg/mL [5]: 1 | Number of isolates inhibited at MIC of ≤0.125 µg/mL [5]: 227 | MIC50 ([5]; Pseudomonas aeruginosa, read-out: MIC50): 0.25 µg/mL (≈ 0.332 µM) | MIC90 ([5]; Pseudomonas aeruginosa, read-out: MIC90): 1 µg/mL (≈ 1.33 µM)
